Eight compounds from PubChem BioAssay AID652253 (Vanderbilt Specialized Chemistry Center, 2013) can be followed below.

Active and inactive are the calls of the source. The rule behind the calls is not given here.

This assay concerns the target Proteinase-activated receptor 4 (Homo sapiens) (UniProt Q96RI0). The experiment in a line: potency of PAR4-AP response blockers – cell-based, CRC, dose response (AID 652253). As to conditions: cells, PAR4-AP induced response, antagonist CRC; for % PAR4-AP response remaining: at 10 µM (top of the series).

Proteinase-activated receptor 4 (Homo sapiens), sequence (Q96RI0 whole entry, looked up): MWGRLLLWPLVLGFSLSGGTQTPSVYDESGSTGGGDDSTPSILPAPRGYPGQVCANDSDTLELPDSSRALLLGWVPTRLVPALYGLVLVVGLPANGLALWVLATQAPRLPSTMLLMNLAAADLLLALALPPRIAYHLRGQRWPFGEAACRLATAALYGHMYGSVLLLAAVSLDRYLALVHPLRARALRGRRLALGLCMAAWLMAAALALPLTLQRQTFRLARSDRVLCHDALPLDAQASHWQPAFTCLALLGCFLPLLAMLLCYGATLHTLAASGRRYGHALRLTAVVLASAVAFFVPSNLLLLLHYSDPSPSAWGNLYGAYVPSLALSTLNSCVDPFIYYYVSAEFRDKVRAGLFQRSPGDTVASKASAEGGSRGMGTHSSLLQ

For the compound `COc1ccc(-c2cn(Cc3cccc(S(C)(=O)=O)c3)c3ccccc23)cn1`, the “% PAR4-AP response remaining” value was “inactive”. For the compound `COc1ccc(-c2cn(Cc3cccc(F)c3)c3ccccc23)cn1`, the IC50 – broadly, the concentration that inhibits the measured activity by half – was “inactive”. On to `COc1ccc(COc2ccc(C(=O)NCCC(C)(C)C)cc2)cc1`, for which the IC50 is 139 nM. On to `COc1ccc(-c2cn(Cc3cccc(Br)c3)c3ccccc23)cn1`, for which the IC50 entry is “inactive”. `COc1ccc(-c2cn(Cc3ccccc3)c3ccccc23)cn1`: the IC50 result was “inactive”. On the same count and under the same terms, as for `COc1ccc(-c2cn(Cc3cccc(Cl)c3)c3ccccc23)cn1`, the entry is “inactive”. In the case of `COc1ccc(-c2cn(Cc3ccccc3)c3ccccc23)cc1`, the “% PAR4-AP response remaining” value is “inactive”. In the case of `Fc1ccc(-c2cn(Cc3ccccc3)c3ccccc23)cn1`, the “% PAR4-AP response remaining” value is “inactive”.
